The source of these data is PubChem BioAssay (NCI).

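Exposure lasted 48 hours, with cells grown in 96-well plates and compounds tested at five concentrations. TGI: total growth inhibition.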

Some test systems named below: HOP-92 NSCLC; SF-268 CNS; PC-3 prostate; A549 NSCLC; OVCAR-4 ovarian; NCI-H522 lung; SN12C renal; LOX IMVI melanoma; SK-OV-3 ovarian; HOP-62 NSCLC; DU-145 prostate; MDA-MB-435; MCF7 breast; BT-549 breast; HL-60(TB) leukemia; ACHN renal; OVCAR-3 ovarian; NCI-H460 lung.
Common to all, as to experiment: NCI anticancer screen, dose series, 48 h

For the molecule `CCCCCCCCCCCCCCCCOP(=O)(O)OCC(NC(C)=O)C(=O)O` (stereo not given), the TGI in the test on HOP-92 NSCLC is over 100 µM; with SF-268 CNS it was 95.9 µM; in the test with PC-3 prostate, 34.7 µM; in the test with A549 NSCLC it was over 100 µM; in the test with OVCAR-4 ovarian, 60.7 µM; with NCI-H522 lung it was over 100 µM. The TGI with SN12C renal was over 100 µM; with LOX IMVI melanoma, over 100 µM; in the test on SK-OV-3 ovarian, over 100 µM; in the test on HOP-62 NSCLC, 36.9 µM; in the test with DU-145 prostate, over 100 µM; with MDA-MB-435, over 100 µM. For the same molecule, the TGI in the test on MCF7 breast is over 100 µM; in the test with BT-549 breast, 34 µM; in the test on HL-60(TB) leukemia it was over 100 µM; in the test with ACHN renal, over 100 µM; in the test on OVCAR-3 ovarian, over 100 µM; with NCI-H460 lung it was over 100 µM.
For the molecule `O=C(NC(Cc1cnc[nH]1)C(=O)N1CCCC1)C1CCCC1` (stereo not given), the TGI in the test on HOP-92 NSCLC, with PC-3 prostate, with A549 NSCLC, in the test with OVCAR-4 ovarian, in the test with NCI-H522 lung and in the test with SN12C renal was over 100 µM in each case. Besides, the TGI in the test on LOX IMVI melanoma, in the test with SK-OV-3 ovarian, in the test on HOP-62 NSCLC, with DU-145 prostate, in the test with MDA-MB-435 and with MCF7 breast was over 100 µM each time. Also, the TGI in the test on BT-549 breast, with HL-60(TB) leukemia, in the test on ACHN renal, in the test with OVCAR-3 ovarian and in the test with NCI-H460 lung was over 100 µM each time.
On to `CN1C(=O)C(O)CC1c1ccccc1C(F)(F)F` (stereo not given), for which the TGI with HOP-92 NSCLC, in the test on PC-3 prostate, in the test with A549 NSCLC, in the test on OVCAR-4 ovarian, in the test on NCI-H522 lung and in the test on SN12C renal was over 100 µM in each case. Also, the TGI with LOX IMVI melanoma, in the test with SK-OV-3 ovarian, with HOP-62 NSCLC, in the test with DU-145 prostate, with MDA-MB-435 and with MCF7 breast was over 100 µM throughout. For the same molecule, the TGI in the test with BT-549 breast, in the test on HL-60(TB) leukemia, with ACHN renal, in the test on OVCAR-3 ovarian and with NCI-H460 lung was over 100 µM throughout.
As for `COC(=O)C(COC(=O)/C=C/c1ccc(OC(C)=O)c(OC(C)=O)c1)NC(=O)/C=C/c1ccc(OC(C)=O)c(OC(C)=O)c1` (stereo not given), the TGI was over 100 µM in the test on HOP-92 NSCLC; 32.6 µM with PC-3 prostate; over 100 µM in the test with A549 NSCLC; 62.8 µM in the test on OVCAR-4 ovarian; 37.8 µM in the test on NCI-H522 lung; 45.4 µM in the test with SN12C renal. Also, the TGI is 53.8 µM in the test with LOX IMVI melanoma; over 100 µM in the test on SK-OV-3 ovarian; 80.4 µM in the test on HOP-62 NSCLC; 45.2 µM in the test with DU-145 prostate; over 100 µM with MDA-MB-435; over 100 µM with MCF7 breast. Also, the TGI in the test with BT-549 breast is over 100 µM; in the test with HL-60(TB) leukemia it was over 100 µM; with ACHN renal, 80.8 µM; in the test on OVCAR-3 ovarian it was 33.7 µM; in the test on NCI-H460 lung, 48.1 µM.
As to `CC1CN(c2cc3c(cc2F)c(=O)c(C(=O)O)cn3-c2ccc(F)cn2)CC(C)N1` (stereo not given), the TGI with HOP-92 NSCLC, with SF-268 CNS, in the test on PC-3 prostate, in the test on A549 NSCLC, with OVCAR-4 ovarian and in the test on NCI-H522 lung was over 100 µM each time. In addition, the TGI with SN12C renal, in the test with LOX IMVI melanoma, with SK-OV-3 ovarian, in the test with HOP-62 NSCLC, in the test with DU-145 prostate and in the test with MDA-MB-435 was over 100 µM in each case. The TGI in the test with MCF7 breast, in the test on BT-549 breast, in the test on HL-60(TB) leukemia, with OVCAR-3 ovarian and in the test on NCI-H460 lung was over 100 µM throughout.
In the case of `CC(=O)OC[C@@]12Cc3ccc(C)c(O)c3[C@]1(C)[C@@H](OC(C)=O)[C@]1(O)[C@H]([C@@H](OC(=O)c3ccccc3)[C@@H](C)[C@H]1OC(C)=O)[C@H]2OC(C)=O`, the TGI with HOP-92 NSCLC, in the test with SF-268 CNS, in the test with PC-3 prostate, with OVCAR-4 ovarian, with NCI-H522 lung and in the test with SN12C renal was over 50 µM throughout. Also, the TGI in the test with LOX IMVI melanoma, with SK-OV-3 ovarian, in the test with HOP-62 NSCLC, in the test with DU-145 prostate, with MDA-MB-435 and in the test on MCF7 breast was over 50 µM each time. In addition, the TGI in the test on BT-549 breast, in the test on HL-60(TB) leukemia, in the test with ACHN renal, in the test on OVCAR-3 ovarian and with NCI-H460 lung was over 50 µM each time.
For the molecule `CCN(CC)C1C(=O)NC1C#Cc1ccccc1` (stereo not given), the TGI was 92.1 µM with HOP-92 NSCLC; over 100 µM with SF-268 CNS; over 100 µM in the test with PC-3 prostate; over 100 µM in the test on OVCAR-4 ovarian; over 100 µM in the test with NCI-H522 lung; over 100 µM with SN12C renal. For the same molecule, the TGI with LOX IMVI melanoma, in the test on SK-OV-3 ovarian, in the test with HOP-62 NSCLC, in the test with DU-145 prostate, in the test on MDA-MB-435 and in the test on MCF7 breast was over 100 µM in each case. The TGI in the test on BT-549 breast, in the test on HL-60(TB) leukemia, with ACHN renal, with OVCAR-3 ovarian and in the test on NCI-H460 lung was over 100 µM each time.
